From US8927598B2, “Treating oncogenic Ras driven cancers” (Duke University, priority 2008, dated 2015)

Experiments:
[1] = test system: human pancreatic cell line MiaPaCa-2; test: Tumor growth of MiaPaCa-2 cells injected into SCID-beige mice given L-NAME in drinking water; type: in vivo; settings: L-NAME 0.5 g/liter in drinking water, vs untreated drinking water
Text: Eight SCID-beige immunocompromised mice. (The Jackson Laboratory, Bar Harbor, Me.). were each injected simultaneously with one million cells of the human pancreatic cell line MiaPaCa-2 (available from the ATCC, identified as ATCC CRL-1420). Then 4 mice were provided with drinking water supplemented with L-NAME at a concentration of 0.5 g/liter and 4 were provided with drinking water that was not supplemented. Measurements were taken at the site of the injection to calculate tumor volume. Results are shown in FIG. 1 which is a graph of Tumor Volume vs. Time in days after injection where the diamonds denote measurements on untreated mice and the triangles denote measurements on L-NAME fed mice.

[2] = test system: human eNOS; test: Knockdown of eNOS expression, immunoblot; type: cell-based
Text: The siRNA of SEQ ID NO:1 is produced as follows: Complementary oligonucletides obtained from Integrated DNA Technologies (Coralville, USA) and annealed together were cloned into the Hind III and Bgl II sites of pSUPER-RETRO (OligoEngine, Seattle, Wash.). The sense strand of this insert is identified in the Sequence Listing as SEQ ID NO: 4. Transcription of this sequence by RNA polymerase produces an shRNA having the Sequence Listing as SEQ ID NO: 5. This is processed using Dicer complex to remove the hairpin to give the double stranded RNA sequence of SEQ ID NO: 1 which specifically knocks down the expression of human eNOS Exemplary dosage is 100-1600 micrograms based on a clinical trial of the siRNA compound AGN211745.
A test for determining that eNOS expression is reduced is by immunoblot by using commercially available phosphor-S1177 eNOS antibody.

[3] = test system: pancreatic cancer cell line; test: Tumor growth in SCID-beige mice of pancreatic cancer cell lines stably infected with siRNA plasmid; type: in vivo, human; settings: cells expressing the siRNA
Procedure: Methods for creating stably infected cell lines are set below:
Day 1 • Morning—split a 10 cm plate of confluent 293T/17 cells (ATCC CRL-11268) 1:6 in αMEM supplemented with 10% Fetal Calf Serum (FCS) (no antibiotics) into a 10 cm plate so as to be 40-50% confluent at time of transfection.
Day 2 • Morning—mix in tissue culture hood in microcentrifuge tube: 12 μg pCL-10A1, 3 μg pSUPER-RETRO-PURO plasmid (OligoEngine, Seattle, Wash.) engineered to encode eNOS, RNA, NRas siRNA or HRas siRNA, and serum free media to 200 μl total volume. Tap tube side gently to mix and incubate at room temperature 15-45 minutes. Add dropwise to 293T/17 cells with micropipette and incubate overnight at 37° C.
Day 3 • Morning—repeat transfection protocol from day 2. Once the transfection mix is added to the cells, it must be incubated for at least 8 hours. Evening—remove media and replace with 6 ml of cell specific media of cells to be infected.
Day 4 • Morning—split a confluent 10 cm plate of pancreatic cancer cell line to be infected in cell type specific media so that they will reach 25-35% confluency the following morning.
Day 5 • Morning—aspirate media in a 10 ml syringe, attach 0.45 μm acrodisc filter to the bottom of the syringe. Filter the media into a 15 ml conical tube. […]
Method of testing pancreatic cancer cell line for tumor growth is set forth below: • 1. Expand pancreatic cancer cells stably infected with pSUPER-RETRO-PURO plasmid (OligoEngine) engineered to encode eNOS siRNA, NRas siRNA, or HRas siRNA to a total count of at least 1×10^7 cells/mouse, typically 4-8 15 cm tissue culture dishes at full confluency (number of dishes determined by cell size). • 2. […] Weigh each mouse for baseline reading and track tumor progression over the weeks to months by measuring large and small diameters and extrapolating tumor volume utilizing the equation: Tumor Volume=(small diameter)^2[…](large diameter/2).

[4] = test system: human NRas; test: Knockdown of NRas expression, immunoblot; type: cell-based
Text: (§1) The siRNA of SEQ ID NO: 2 is produced as follows: Complementary oligonucleotides obtained from Integrated DNA Technologies (Coralville, USA) and annealed together were cloned into the Hind III and Bgl II sites of pSUPER-RETRO (OligoEngine, Seattle, Wash.). The sense strand of this insert is identified in the Sequence Listing as SEQ ID NO: 8. Transcription of this sequence by RNA polymerase produces an shRNA having the sequence identified in the Sequense Listing as SEQ ID NO: 9. This is processed using Dicer complex to remove the hairpin to give the double stranded RNA sequence of SEQ ID NO: 2 which specifically knocks down the expression of human NRas.
A test for determining that NRas expression is reduced is by immunoblot by using commercially available NRas antibody.

[5] = test system: human HRas; test: Knockdown of HRas expression, immunoblot; type: cell-based
Text: as §1, with “3” for “2”, “6.” for “8.”, “7.” for “9.”, “HRas.” for “NRas.”
A test for determining that HRas expression is reduced is by immunoblot by using commercially available HRas antibody.

COC(=O)[C@@H](N)CCCNC(=N)N[N+](=O)[O-] [L-NAME, N^G-nitro-L-arginine methyl ester]
Tumor growth (tumor volume vs. time in days after injection) [1]: Tumors grew more slowly
Reduction in tumor size at termination of the experiment ([1]; p<0.01): ~3 fold

SEQ ID NO: 1: novel siRNA generated by the applicant that knocks down the expression of human eNOS (AAGAGUUAUAAGAUCCGCUUC; chemistry not given here; listed as Homo sapiens)
Knockdown of expression of human eNOS [2]: efficiently knocks down
Tumor initiation and growth of cancer cell lines in mice [3]: blocks tumor initiation and growth

SEQ ID NO: 2: novel siRNA generated by the applicant that knocks down the expression of human NRas (CAAGAAGAGUACAGUGCCAUG; listed as RNA, chemistry not given here; listed as Homo sapiens)
Knockdown of expression of NRas proteins [4]: efficiently knocks down
Tumor initiation and growth of cancer cell lines in mice [3]: inhibits tumor growth

SEQ ID NO: 3: published siRNA (Yang, G., et al., Oncogene 22, 5694-5701 (2003)) that knocks down the expression of human HRas (GGCAAGAGUGCGCUGACCAUC; listed as RNA, chemistry not given here; listed as Homo sapiens)
Tumor initiation and growth of cancer cell lines in mice [3]: inhibits tumor growth
Knockdown of expression of HRas proteins [5]: efficiently knocks down
